These results are taken from patent publication US9409122B2, “Gas capture process” (Commonwealth Scientific and Industrial Research Organisation, priority 2011, dated 2016).

The series can be described thus: CO2 desorption at 90° C. The class given is physicochemical. How it is done:
The test results (shown in the accompanying figures) are a comparison of four compounds within general formula (I) with 4-aminopiperidine in terms of their CO2 absorption at 40° C. (FIG. 2(a)) and CO2 desorption at 90° C. (FIG. 2(b)). These absorption experiments were carried with CO2 gas (99%).
In FIG. 3, CO2 absorption and desorption results for Compounds 1 to 4 and 4-aminopiperidine (2M and 1.7M in one case due to the material availability) were compared with MEA (4M) and piperazine (Pz) (2M). An MEA concentration of 4M was chosen in this comparison to match the total amine/nitrogen concentration of diamines (2×2M).

Consider `C1CNCCN1` [Pz, piperazine], for which the stability of carbamate result is “reasonably stable”.
